A short description of series [1]: Metabolic stability assay in liver microsomes (mouse). In kind it is in vitro ADME. Here is the method: (§1) The metabolic reaction of compounds in liver microsome was performed in a system with a total volume of 400 µL, and the following steps below were sequentially performed for the reaction and detection: 1) 200 µL of phosphate buffer (200 mM), 106 µL of sterile ultrapure water, and 40 µL of magnesium chloride solution (50 mM) were added to each detection tube to prepare a reaction working solution. 2) Two reaction systems with or without adding NADPH were prepared for each compound to be tested. For the reaction system with adding NADPH: 10 µL of liver microsomes (20 mg/mL) and 40 µL of NADPH (10 mM) were added to the above working solution; for the reaction system without adding NADPH: 10 µL of liver microsomes (20 mg/mL) and 40 µL of sterile ultrapure water were added to the above working solution. The final concentration of liver microsomes in both reaction systems was 0.5 mg/mL. 3) 4 µL of the compound to be tested ([…]) was added to each reaction tube, resulting in a final concentration of 1 µM for the compound in the reaction system. The detection tubes were placed at 37°C for reaction. 4) 50 µL samples were taken from each detection tube at 0, 15, 30, 45, and 60 minutes after adding the compound. The reaction was terminated by adding cold acetonitrile containing IS (100 nM alprazolam, 200 nM labetalol, 200 nM caffeine, and 2 µM ketoprofen) in a 4× volume. The samples were centrifuged at 3220 g for 40 minutes, 100 µL of the supernatant was mixed with 100 µL of ultrapure water, and a sample was taken for LC-MS/MS analysis.
(§2) Calculation of in vitro liver microsomal metabolic half-life and in vitro metabolic intrinsic clearance rate: The LC-MS detection results were analyzed to obtain the percentage of the remaining amount of the tested compound relative to the initial amount at each time point. The natural logarithm of the remaining percentage was linearly fitted against the incubation time.

Series [2] is described as follows: Metabolic stability assay in liver microsomes (human). Type of series: in vitro ADME. Here is the method: as §1, §2
Series [3] concerns Molt-4 cells. Put plainly: Detection of E3 enzyme-dependence: Molt-4 cell killing with or without pomalidomide (CCK-8). In kind it is cell-based. The conditions noted are these: 10 µM pomalidomide, Figure 2. Here is the method: (§3) Actively growing and healthy Molt-4 cells were collected, centrifuged at 1000 rpm for 5 minutes, and after removing the supernatant, the cells were resuspended in fresh RPMI-1640 medium containing 10% fetal bovine serum. Cell counting was then performed. The cell density was adjusted to 120,000 cells per milliliter, and 100 µL of the cell suspension was added to each well of a 96-well transparent cell culture plate. It was noted that the edge wells of the 96-well plate were not used for testing, and 300 µL of PBS alone was added to these wells to reduce medium evaporation.
Molt-4 cells were plated in duplicate according to the number of the tested small molecules, so as to test the effects with and without the addition of pomalidomide (a competitive ligand specific for E3 ligase), in which one half of the parallel cells was added 10 µM pomalidomide. A series of small molecule concentration gradients (0.001, 0.003, 0.01, 0.03, 0.1, 0.3, 1, and 3 µM) were pre-set, and a series of 2× drug dilutions for the above concentrated were prepared in DMEM medium containing 10% fetal bovine serum. 100 µL of the above DMEM medium containing the gradient concentrations of the drug was added to 96-well plates that have been pre-plated with cells, so that the final drug concentration in each well was the pre-set series of concentrations respectively. Three replicate wells were used for each test drug concentration. The 96-well plates were placed back in a 37°C incubator, and the cell viability was detected after three days.
(§4) Cell viability after drug treatment was detected by using the CCK-8 method: three days after adding the drugs, the plates were taken out, and the supernatant was discarded. Then, 100 µL of pre-prepared CCK-8 working solution was added to each well. The CCK-8 working solution was obtained through diluting a CCK-8 stock solution (C0041, Beyotime) by 10-fold volumn with a serum-free DMEM culture medium. The 96-well plates with the added CCK-8 working solution were placed back in the 37°C incubator and incubated for 0.5-2 hours. The plates were then taken out, and the absorbance value (OD value) of each well was measured at a wavelength of 450 nm. The cell viability in each experimental group was calculated according to the following formula: Relative cell viability (%) = (Blank control group - Experimental group) / Blank control group × 100%.

Series [4] has as its system Molt-4 cells. Put plainly: Molt-4 cell killing activity test (CCK-8). In kind it is cell-based. The following applies: for pEC50: Homo sapiens. Here is the method:
as §3, with “Molt-4 cells were cultured and amplified in 10 cm dishes by using RPMI-1640 medium supplemented with 10% fetal bovine serum. Actively” for “Actively”, “testing;” for “testing,”
The small molecule compounds to be tested for activity were prepared. A series of small molecule concentration gradients (0.001, 0.003, 0.01, 0.03, 0.1, 0.3, 1, and 3 µM) were pre-set, and a series of 2× drug dilutions for the above concentrations were prepared in RPMI-1640 medium containing 10% fetal bovine serum. 100 µL of the above medium containing the gradient concentrations of the drug was added to each well of a 96-well plate pre-seeded with cells, so that the final drug concentration in each well was the pre-set concentration gradient. Three replicate wells were used for each tested drug concentration. The 96-well plate was placed back in a 37°C incubator, and the cell viability was measured after three days.
as §4, with “The plate” for “Cell viability after drug treatment”, “taken out” for “detected by using the CCK-8 method:”, “drugs,” for “drugs, the plates were taken out,”, “and” for “and the supernatant was discarded. Then,”, “RPMI-1640” for “DMEM culture”, “nm, and the” for “nm. The”

A further series deals with HEF cells. Put plainly: Senescent cell killing activity test, HEF cell model (CCK-8). Type of series: cell-based, human. The conditions noted are these: higher concentration (25 µM). How it is done:
To avoid replication of the induced senescent cells, low-passage proliferating HEF cells (<10 passages), MRC5 cells (<6 passages), and BJ cells (<10 passages) were used as normal controls. For chemical drug induced senescence, HEF cells were treated with 10 µM etoposide (Selleck, S1225) for 36-48 hours, MRC5 cells were treated with 5 µM bleomycin (Selleck, S1225) for 72 hours, and BJ cells were treated with 10 µg/mL bleomycin for 72 hours. Three days after the treatment, the cells were subcultured in fresh culture medium at a 1:3 ratio for 72 hours before further analysis and use.
Non-senescent and induced-senescent HEF cells, non-senescent and induced-senescent MRC5 cells, and non-senescent and induced-senescent BJ cells were respectively digested with trypsin, and centrifuged at 1000 rpm for 5 minutes. Then, the supernatant was removed, and the cells were resuspended in fresh DMEM culture medium containing 10% fetal bovine serum for counting. The cell density was adjusted so that the non-senescent cell density was 4000 cells/100 µL and the senescent cell density was 7000 cells/100 µL. 100 µL of the cell suspension was added to each well of a 96-well transparent cell culture plate. It was noted that the edge wells of the 96-well plate were not used as testing wells, and 300 µL of PBS alone was added to these wells to reduce evaporation of the culture medium. The 96-well plates with the well-plated cells were placed back in a 37°C incubator for overnight culture until the cells adhered. On the next day, the small molecule compounds to be tested were prepared and added after the cells had adhered.
A series of small molecule concentration gradients (0.01, 0.03, 0.1, 0.3, 1, 3, 10, and 25 µM) were pre-set, and a series of 2× drug dilutions for the above concentrations were prepared in DMEM culture medium containing 10% fetal bovine serum. 100 µL of the above DMEM culture medium containing the gradient concentrations of the drug was added to each well of the 96-well plate that had been well-plated with cells, so that the final drug concentration in each well was the pre-set series of concentrations. Three replicate wells were used for each test drug concentration. The 96-well plates were placed back in a 37°C incubator, and cell viability was measured after three days.
Three days after adding the drug, the plates were taken out, and the supernatant was discarded. 100 µL of pre-prepared CCK-8 working solution was added to each well. The CCK-8 working solution was obtained through diluting a CCK-8 stock solution (C0041, Beyotime) with a serum-free DMEM culture medium by 10-fold volumn. The 96-well plates containing the CCK-8 working solution were placed back in the 37°C incubator and incubated for 0.5-2 hours. The plates were then taken out, and the absorbance value (OD value) of each well was measured at a wavelength of 450 nm. The cell viability in each experimental group was calculated according to the following formula: Relative cell viability (%) = (Blank control group - Experimental group) / Blank control group × 100%.

Setting [5] is: mouse liver microsomes 0.5 mg/mL, 1 µM compound, 37°C.
[6] abbreviates: human liver microsomes 0.5 mg/mL, 1 µM compound, 37°C.
Where [7] appears, read: 72 h, Molt-4 cells, three days, CCK-8, read-out: EC50 (Molt-4).

Results on 8 compounds are retold here after patent publication EP4759810A1, “PROTAC TARGETING BCL-XL PROTEIN AND USE THEREOF” (BEIJING SUNCELL BIO-MEDICAL CO., LTD., priority 2023, dated 2025).

A word on the half-life: it is the time in which the quantity being followed falls by half.

Each structure is given as a SMILES string. pEC50: −log10 of the molar value. Like-named read-outs stand apart in the source and are kept apart here.

`[2H]C1([2H])CN(c2ccc(-c3cnn(CC45CC6CC(CC(C6)C4)C5)c3C)c(C(=O)O)n2)Cc2c(C(=O)Nc3nc4ccccc4s3)cccc21` [Compound A13D-5]: the Clint worked out at 17.61 µL/min/mg protein in series [1] (setting [5]) and 53.56 µL/min/mg protein in series [2] (setting [6]). Besides, the figures for the T1/2 in series [1] (setting [5]) and in series [2] (setting [6]) were 1.312 h and 0.4313 h, respectively.

In the case of `[2H]C1([2H])c2c(C(=O)Nc3nc4ccccc4s3)cccc2C([2H])([2H])C([2H])([2H])N1c1ccc(-c2cnn(CC34CC5CC(CC(C5)C3)C4)c2C)c(C(=O)O)n1` [Compound A13D-2], in series [1] (setting [5]), the Clint is listed as 18.15 µL/min/mg protein and the T1/2 is 1.273 h. Besides, in series [2] (setting [6]), the Clint is 55.31 µL/min/mg protein and the T1/2 worked out at 0.4177 h.

With `O=C(Nc1nc2ccccc2s1)c1cccc2c1CN(c1ccc(CCCOc3ccc(C#CCN4CCNCC4)cc3F)c(C(=O)O)n1)CC2` [Compound C1], in the series with Molt-4 cells [3], the “cell killing activity after addition of pomalidomide (+poma) compared to without (-poma)” value is “only slightly affected”. In addition, the Clint amounted to 4.90 µL/min/mg protein in series [1] (setting [5]) and 7.36 µL/min/mg protein in series [2] (setting [6]). In addition, the results for the half-life at 1 µM in series [1] (setting [5]) and in series [2] (setting [6]) were 4.71 h and 3.14 h, respectively. In addition, the microsomal CLint at 1 µM in series [1] (mouse liver microsomes, read-out: clearance rate (metabolic clearance rate)) worked out at 4.9 µL/min/mg; in series [2] (human liver microsomes, read-out: clearance rate (metabolic clearance rate)), 7.36 µL/min/mg. In the series with Molt-4 cells [4] (Figure 1, 0.001-3 µM, comparison with control molecules), the “killing Molt-4 cells at different concentrations (Figure 1), in words” value was “higher percentage for killing Molt-4 cells than those of ABT-263 and DT-2216, but lower than those of A-1331852 and A-1155463”. The pEC50 is 7.00 to 8.00 with Molt-4 cells [4] (setting [7]) and 7.00 to 8.00 in the series on Molt-4 cells [4] (Bcl-xL-positive Molt-4 cells, read-out: cellular activity / killing activity (Molt-4 cells)). The “activity for killing Molt-4 cells, in words” value with Molt-4 cells [4] (comparison with C1, the targeting ligand or control molecules) is “higher than that of the commercially available control molecule ABT-263, but lower than those of A-1331852 and A-1155463”.

In series [1] (setting [5]), `[2H]C1([2H])Cc2cccc(C(=O)Nc3nc4ccccc4s3)c2CN1c1ccc(-c2cnn(CC34CC5CC(CC(C5)C3)C4)c2C)c(C(=O)O)n1` [Compound A13D-6] showed a Clint of 14.07 µL/min/mg protein and a T1/2 of 1.642 h. The “metabolic stability in liver microsomes, in words” value in series [2] (human and mouse liver microsomes, compared with A-1331852 and molecules deuterated at other sites) is “better metabolic stability in liver microsomes”. In addition, in series [2] (setting [6]), the Clint is 50.18 µL/min/mg protein and the T1/2 is 0.4603 h.

In the case of `[2H]c1c([2H])c([2H])c2sc(NC(=O)c3cccc4c3CN(c3ccc(-c5cnn(CC67CC8CC(CC(C8)C6)C7)c5C)c(C(=O)O)n3)CC4)nc2c1[2H]` [Compound A13D-1], in series [1] (setting [5]), the Clint was 266.89 µL/min/mg protein and the T1/2 worked out at 0.0865 h. In series [2] (setting [6]), the Clint was determined as 235.82 µL/min/mg protein and the T1/2 was determined as 0.098 h.

With `Cc1c(-c2ccc(N3CCc4cccc(C(=O)Nc5nc6ccccc6s5)c4C3)nc2C(=O)O)cnn1CC12CC3CC(CC(C3)C1)C2` [Compound A1331852, reference compound], the “cell killing activity after addition of pomalidomide (+poma) compared to without (-poma)” value with Molt-4 cells [3] is “only slightly affected”.

As to `Cc1ncsc1-c1ccc([C@H](C)NC(=O)[C@@H]2C[C@@H](O)CN2C(=O)[C@@H](NC(=O)CCCCCC(=O)N2CCN(CC[C@H](CSc3ccccc3)Nc3ccc(S(=O)(=O)NC(=O)c4ccc(N5CCN(CC6=C(c7ccc(Cl)cc7)CCC(C)(C)C6)CC5)cc4)cc3S(=O)(=O)C(F)(F)F)CC2)C(C)(C)C)cc1` [DT-2216, reference compound], the “cell killing activity after addition of pomalidomide (+poma) compared to without (-poma)” value in the series with Molt-4 cells [3] was “almost unaffected”.

Consider `CC1(C)CCC(c2ccc(Cl)cc2)=C(CN2CCN(c3ccc(C(=O)NS(=O)(=O)c4ccc(N[C@H](CCN5CCOCC5)CSc5ccccc5)c(S(=O)(=O)C(F)(F)F)c4)cc3)CC2)C1` [ABT-263, reference compound], for which, in the series with Molt-4 cells [3], the “cell killing activity after addition of pomalidomide (+poma) compared to without (-poma)” value is “only slightly affected”. Besides, the “toxicity on normal non-senescent HEF cells” value in the series on HEF cells is recorded as “toxic killing effects on normal non-senescent HEF cells”. Also, the pEC50 in the series with Molt-4 cells [4] (setting [7]) is 6.00 to 7.00.
